Laboratory results reported in ChEMBL document CHEMBL1125008 (J Med Chem, 1990).

Columns and labels:
[1] = target: T1, Serotonin 3 receptor (5HT3) (Mus musculus, UniProt Q9JHJ5+P23979); experiment: (§1) The binding affinity was measured for 5-hydroxytryptamine 3 receptor on NG 108-15 cell line of mouse neuroblastoma-glioma cells in presence of [3H]5 radioligand (in vitro); type: cell-based
T1 sequence (Q9JHJ5 whole entry): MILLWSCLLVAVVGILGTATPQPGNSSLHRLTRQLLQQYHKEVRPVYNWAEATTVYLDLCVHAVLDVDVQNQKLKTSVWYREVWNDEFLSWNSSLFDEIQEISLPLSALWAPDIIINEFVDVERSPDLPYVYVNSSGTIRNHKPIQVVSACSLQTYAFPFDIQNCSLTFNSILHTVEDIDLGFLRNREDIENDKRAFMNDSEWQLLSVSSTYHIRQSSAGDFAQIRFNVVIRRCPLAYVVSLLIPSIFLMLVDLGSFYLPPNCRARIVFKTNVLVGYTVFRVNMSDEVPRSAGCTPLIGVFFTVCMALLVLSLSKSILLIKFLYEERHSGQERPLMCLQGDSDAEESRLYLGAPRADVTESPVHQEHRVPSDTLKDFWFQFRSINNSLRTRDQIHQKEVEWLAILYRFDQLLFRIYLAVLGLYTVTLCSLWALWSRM
T1 sequence (P23979 whole entry): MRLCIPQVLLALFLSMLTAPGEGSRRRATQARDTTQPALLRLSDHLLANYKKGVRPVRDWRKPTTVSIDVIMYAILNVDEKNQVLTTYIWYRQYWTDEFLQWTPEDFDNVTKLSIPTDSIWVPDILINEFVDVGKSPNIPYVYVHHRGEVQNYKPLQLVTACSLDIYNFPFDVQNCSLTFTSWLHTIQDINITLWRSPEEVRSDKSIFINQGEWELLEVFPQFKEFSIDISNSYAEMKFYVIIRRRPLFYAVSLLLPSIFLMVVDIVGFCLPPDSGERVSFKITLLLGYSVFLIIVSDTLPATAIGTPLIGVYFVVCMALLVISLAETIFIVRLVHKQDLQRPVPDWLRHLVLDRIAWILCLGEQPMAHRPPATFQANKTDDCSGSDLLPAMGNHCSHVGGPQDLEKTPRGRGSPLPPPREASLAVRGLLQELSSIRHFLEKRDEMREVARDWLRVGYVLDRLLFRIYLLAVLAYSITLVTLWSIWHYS

[2] = target: T2, Serotonin 3 receptor (5HT3) (Mus musculus) (UniProt Q9JHJ5+P23979); experiment: as §1; type: cell-based; conditions: concentration not given here
[3] = target: T2, Serotonin 3 receptor (5HT3) (Mus musculus); experiment: Percent inhibition of [3H]5 binding to 5-hydroxytryptamine 3 receptor was evaluated by injection of compound (75 microCi/kg, […]) into the tail vein of mice (in vivo); type: organism-based

Q: `c1ccc2nc(N3CCNCC3)ccc2c1` [QUIPAZINE] was tested. Which Ki [1] did it give?
A: 0.00867 µM

Q: `COc1ccccc1-c1csc(Cc2[nH]cnc2C)n1` was tested. Which inhibition [2] did it give?
A: 50%

Q: `Cc1[nH]cnc1Cc1nc(-c2ccccc2)cs1` was tested. Which inhibition [2] did it give?
A: 53%

Q: How did the inhibition [3] turn out when `Cc1[nH]cnc1Cc1nc(-c2cccc3cccnc23)cs1` was run?
A: 54%

Q: Which Ki [1] does the source give for `Cc1[nH]c2ccc(O)cc2c1CCN` here?
A: 1.43 µM

Q: How did the Ki [1] turn out when `Cc1nccn1CC1CCc2c(c3ccccc3n2C)C1=O` (stereo not drawn) [ONDANSETRON] was run?
A: 0.012 µM

Q: How did the Ki [1] turn out when `CN1[C@@H]2CC[C@H]1C[C@@H](OC(=O)c1c[nH]c3ccccc13)C2` [TROPISETRON] was run?
A: 0.0038 µM

Q: Which inhibition [2] does the source give for `Cc1[nH]cnc1Cc1nc(-c2ccccc2F)cs1` here?
A: 66%
